Laboratory results from patent US8829034B2, “Compounds which modulate the CB2 receptor” (Boehringer Ingerlheim International GmbH, priority 2006, dated 2014).

Biological target: T1, human CB2R (Homo sapiens, UniProt P34972)
T1 construct: host or cells: CHO cells
Experiment: CB2R mediated modulation of cAMP synthesis
Format: cell-based
Settings: for agonistic activity: found through the use of the above described assays
Summary of the method: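 CHO cells expressing human CB2R were treated with compound for 30 min at 37 °C in buffer containing 1 mM IBMX, 0.25% BSA and 10 uM forskolin. cAMP was measured after lysis. EC50 was taken as 50% inhibition of forskolin-stimulated cAMP, with 100% defined by 1 uM CP55940, using a four-parameter logistic fit.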

T1 sequence (P34972 whole entry): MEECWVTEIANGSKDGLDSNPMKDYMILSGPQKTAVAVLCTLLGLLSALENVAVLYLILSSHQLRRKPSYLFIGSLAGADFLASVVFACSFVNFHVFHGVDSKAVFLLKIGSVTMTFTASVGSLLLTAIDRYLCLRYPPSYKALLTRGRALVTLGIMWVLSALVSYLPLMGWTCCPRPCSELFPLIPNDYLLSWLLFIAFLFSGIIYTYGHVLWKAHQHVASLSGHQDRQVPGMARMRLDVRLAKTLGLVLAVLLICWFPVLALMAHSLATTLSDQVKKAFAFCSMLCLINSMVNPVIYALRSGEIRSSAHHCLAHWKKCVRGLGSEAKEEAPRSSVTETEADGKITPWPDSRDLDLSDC

SMILES	EC50 [nM]	agonistic activity
CC(C)(C(=O)Nc1nc(-c2ccc(Cl)cc2)cs1)S(=O)(=O)CC1CCOCC1 [N-[4-(4-Chloro-phenyl)-thiazol-2-yl]-2-methyl-2-(tetrahydro-pyran-4-ylmethanesulfonyl)-propionamide]	2.2	agonistic activity
CC(C)(C(=O)Nc1nc(-c2ccc(F)cc2)cs1)S(=O)(=O)CC1CCOCC1 [N-[4-(4-Fluoro-phenyl)-thiazol-2-yl]-2-methyl-2-(tetrahydro-pyran-4-ylmethanesulfonyl)-propionamide]	5.5	agonistic activity
